US10323022B2, “Pyrrolidinyl urea, pyrrolidinyl thiourea and pyrrolidinyl guanidine compounds as TrkA kinase inhibitors” (Array BioPharma Inc., priority 2011, dated 2019)
Counter-ions that a name gives are not always drawn.

Biological target: TrkA (Homo sapiens (Human), UniProt P04629)
Assay: TrkA Omnia Assay
Format: biochemical
Details: averaged IC50; 20 nM enzyme, 500 μM ATP, 10 μM peptide substrate
Summary of the method: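 Continuous fluorescent kinase read-out (ex 360 nm, em 485 nm) over 70 min, with initial rates fitted to 4- or 5-parameter logistic curves for IC50. Final conditions: 500 μM ATP, 10 μM Omnia Tyr Peptide #4, 20 nM TrkA, MOPS pH 7.5 buffer with MgCl2 and Triton X-100; enzyme and compound preincubated 10 min at ambient temperature.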

Sequence of TrkA (P04629 33-796): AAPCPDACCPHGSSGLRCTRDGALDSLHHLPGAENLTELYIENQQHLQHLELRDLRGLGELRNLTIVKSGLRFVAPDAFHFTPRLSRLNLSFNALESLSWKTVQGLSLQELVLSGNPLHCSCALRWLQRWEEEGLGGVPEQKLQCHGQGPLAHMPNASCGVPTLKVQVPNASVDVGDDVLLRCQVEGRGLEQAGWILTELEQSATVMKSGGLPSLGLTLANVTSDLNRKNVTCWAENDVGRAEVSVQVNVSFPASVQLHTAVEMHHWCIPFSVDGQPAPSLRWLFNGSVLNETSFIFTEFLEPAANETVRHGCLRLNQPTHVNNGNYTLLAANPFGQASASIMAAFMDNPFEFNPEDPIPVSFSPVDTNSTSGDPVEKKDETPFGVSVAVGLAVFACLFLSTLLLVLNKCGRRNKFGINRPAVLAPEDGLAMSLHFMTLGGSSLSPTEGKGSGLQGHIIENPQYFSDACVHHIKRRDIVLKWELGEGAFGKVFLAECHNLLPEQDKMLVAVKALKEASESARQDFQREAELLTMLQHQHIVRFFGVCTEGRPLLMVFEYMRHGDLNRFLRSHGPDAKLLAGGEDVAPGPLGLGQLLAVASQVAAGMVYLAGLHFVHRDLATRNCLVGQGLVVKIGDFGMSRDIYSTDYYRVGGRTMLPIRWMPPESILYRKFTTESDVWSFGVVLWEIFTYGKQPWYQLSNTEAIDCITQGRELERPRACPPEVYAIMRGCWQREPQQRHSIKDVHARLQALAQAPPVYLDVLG

| IC50 [nM] | SMILES |
| --- | --- |
| < 100 | COCCN1C[C@@H](NC(=S)Nc2c(C)c(-c3ccc(=O)n(C)c3)nn2-c2ccccc2)[C@H](c2ccc(F)c(F)c2)C1 [Example 631, 1-((3S,4R)-4-(3,4-difluorophenyl)-1-(2-methoxyethyl)pyrrolidin-3-yl)-3-(4-methyl-3-(1-methyl-6-oxo-1,6-dihydropyridin-3-yl)-1-phenyl-1H-pyrazol-5-yl)thiourea] |
| 100 to 1000 | COCCN1C[C@@H](NC(=O)Nc2c(C)c(-c3cnn(C)c3)nn2-c2cncc(C)c2)[C@H](c2ccc(F)c(F)c2)C1 [Example 496, 1-((3S,4R)-4-(3,4-difluorophenyvl)-1-(2-methoxyethyl)pyrrolidin-3-yl)-3-(1′,4-dimethyl-1-(5-methylpyridin-3-yl)-1H, 1′H-[3,4′-bipyrazol]-5-yl)urea] |
| < 100 | COCCN1C[C@@H](NC(=O)Nc2c(C)c(-c3ccn(C)c(=O)c3)nn2-c2ccccc2)[C@H](c2ccc(F)c(F)c2)C1 [Example 505, 1-((3S,4R)-4-(3,4-difluorophenyl)-1-(2-methoxyethyl)pyrrolidin-3-yl)-3-(4-methyl-3-(1-methyl-2-oxo-1,2-dihydropyridin-4-yl)-1-phenyl-1H-pyrazol-5-yl)urea] |
| < 100 | COCCN1C[C@@H](NC(=O)Nc2c(C)c(-c3nn(C)c(=O)o3)nn2-c2ccccc2)[C@H](c2ccc(F)c(F)c2)C1 [Example 602, 1-((3S,4R)-4-(3,4-difluorophenyl)-1-(2-methoxyethyl)pyrrolidin-3-yl)-3-(4-methyl-3-(4-methyl-5-oxo-4,5-dihydro-1,3,4-oxadiazol-2-yl)-1-phenyl-1H-pyrazol-5-yl)urea] |
| < 100 | COCCN1C[C@@H](NC(=O)Nc2c(C3CC3)c(-c3cnn(C)c3)nn2-c2ccccc2)[C@H](c2ccc(F)c(F)c2)C1 [Example 309, 1-(4-cyclopropyl-1′-methyl-1-phenyl-1H,1′H-[3,4′-bipyrazol]-5-yl)-3-((3S,4R)-4-(3,4-difluorophenyl)-1-(2-methoxyethyl)pyrrolidin-3-yl)urea] |
| < 100 | COCCN1C[C@@H](NC(=O)Nc2c(Cl)c(COC3CCNCC3)nn2-c2ccccc2)[C@H](c2ccc(F)c(F)c2)C1 [Example 590, 1-(4-chloro-1-phenyl-3-((piperidin-4-yloxy)methyl)-1H-pyrazol-5-yl)-3-((3S,4R)-4-(3,4-difluorophenyl)-1-(2-methoxyethyl)pyrrolidin-3-yl)urea dihydrochloride] |
| 100 to 1000 | CCOc1nn(-c2ccccc2)c(NC(=O)N[C@@H]2CN(c3ccc(F)cc3)C[C@H]2c2ccccc2)c1C [Example 235, 1-(3-ethoxy-4-methyl-1-phenyl-1H-pyrazol-5-yl)-3-((3S,4R)-1-(4-fluorophenyl)-4-phenylpyrrolidin-3-yl)urea] |
| 100 to 1000 | COCCN1C[C@@H](NC(=O)Nc2cc(OCc3ccccc3)nn2C)[C@H](c2ccc(F)c(F)c2)C1 [Example 136, 1-(3-(benzyloxy)-1-methyl-1H-pyrazol-5-yl)-3-((3S,4R)-4-(3,4-difluorophenyl)-1-(2-methoxyethyl)pyrrolidin-3-yl)urea] |
| < 100 | COCCN1C[C@@H](NC(=O)Nc2c(C)c(-c3cnn(Cc4ccc(OC)cc4)c3)nn2-c2ccccc2)[C@H](c2ccc(F)c(F)c2)C1 [Example 446, 1-((3S,4R)-4-(3,4-difluorophenyl)-1-(2-methoxyethyl)pyrrolidin-3-yl)-3-(1′-(4-methoxybenzyl)-4-methyl-1-phenyl-1H, 1′H-[3,4′-bipyrazol]-5-yl)urea] |
| < 100 | COCCN1C[C@@H](NC(=O)Nc2c(C)c(-c3cnn(C)c3)nn2-c2cncc(F)c2)[C@H](c2ccc(F)c(F)c2)C1 [Example 495, 1-((3S,4R)-4-(3,4-difluorophenyl)-1-(2-methoxyethyl)pyrrolidin-3-yl)-3-(1-(5-fluoropyridin-3-yl)-1′,4-dimethyl-1H, 1′H-[3,4′-bipyrazol]-5-yl)urea] |
| < 100 | Cc1c(OCC#N)nn(-c2ccccc2)c1NC(=O)N[C@@H]1CN(Cc2csnn2)C[C@H]1c1ccc(F)c(F)c1 [Example 250, 1-((3S,4R)-1-((1,2,3-thiadiazol-4-yl)methyl)-4-(3,4-difluorophenyl)pyrrolidin-3-yl)-3-(3-(cyanomethoxy)-4-methyl-1-phenyl-1H-pyrazol-5-yl)urea] |
| < 100 | COCCN1C[C@@H](NC(=O)Nc2c(C)c(-c3cncc(F)c3)nn2-c2cccnc2)[C@H](c2ccc(F)c(F)c2)C1 [Example 490, 1-((3S,4R)-4-(3,4-difluorophenyl)-1-(2-methoxyethyl)pyrrolidin-3-yl)-3-(3-(5-fluoropyridin-3-yl)-4-methyl-1-(pyridin-3-yl)-1H-pyrazol-5-yl)urea] |
| < 100 | COCCN1C[C@@H](NC(=O)Nc2c(C)c(-c3cnn(C)c3)nn2-c2ccccc2)[C@H](c2cc(F)cc(Cl)c2)C1 [Example 467, 1-((3S,4R)-4-(3-chloro-5-fluorophenyl)-1-(2-methoxyethyl)pyrrolidin-3-yl)-3-(1′,4-dimethyl-1-phenyl-1H, 1′H-3,4′-bipyrazol-5-yl)urea] |
| < 100 | COCC(C(=O)OC)N1CC(NC(=O)Nc2c3c(nn2-c2ccccc2)CCC3)[C@H](c2ccccc2)C1 (stereo in doubt) [Example 258, methyl 3-methoxy-2-((trans)-3-phenyl-4-(3-(2-phenyl-2,4,5,6-tetrahydrocyclopenta[c]pyrazol-3-yl)ureido)pyrrolidin-1-yl)propanoate] |
| < 100 | COCCN1C[C@@H](NC(=O)Nc2cc(C)nn2-c2ccccc2)[C@H](c2cc(F)cc(F)c2)C1 [Example 86, 1-((3S,4R)-4-(3,5-difluoro-phenyl)-1-(2-methoxyethyl)pyrrolidin-3-yl)-3-(3-methyl-1-phenyl-1H-pyrazol-5-yl)urea] |
| < 100 | COCCOc1nn(-c2ccccc2)c(NC(=O)N[C@@H]2CN(CC(F)(F)F)C[C@H]2c2ccccc2)c1C (relative stereo) [Example 196, 1-(3-(2-methoxyethoxy)-4-methyl-1-phenyl-1H-pyrazol-5-yl)-3-((trans)-4-phenyl-1-(2,2,2-trifluoroethyl)pyrrolidin-3-yl)urea] |
| < 100 | COCCN1C[C@@H](NC(=O)Nc2c(C)c(-c3cnc(N(C)C)nc3)nn2-c2ccccc2)[C@H](c2ccc(F)cc2)C1 [Example 529, 1-(3-(2-(dimethylamino)pyrimidin-5-yl)-4-methyl-1-phenyl-1H-pyrazol-5-yl)-3-((3S,4R)-4-(4-fluorophenyl)-1-(2-methoxyethyl)pyrrolidin-3-yl)urea] |
| < 100 | CCOc1nn(-c2ccccc2)c(NC(=O)N[C@@H]2CN(c3cn[nH]c3)C[C@H]2c2cc(F)cc(F)c2)c1C [Example 217, 1-((3S,4R)-4-(3,5-difluorophenyl)-1-(1H-pyrazol-4-yl)pyrrolidin-3-yl)-3-(3-ethoxy-4-methyl-1-phenyl-1H-pyrazol-5-yl)urea] |
| < 100 | COCCN1C[C@@H](NC(=O)Nc2c(C)c([C@H]3C[C@@H](O)C3)nn2-c2ccccc2)[C@H](c2ccc(F)cc2)C1 [Example 454, 1-((3S,4R)-4-(4-fluorophenyl)-1-(2-methoxyethyl)pyrrolidin-3-yl)-3-(3-(cis-3-hydroxycyclobutyl)-4-methyl-1-phenyl-1H-pyrazol-5-yl)urea] |
| < 100 | COCCN1C[C@@H](NC(=O)Nc2cc(-c3ccc(F)cc3)nn2C)[C@H](c2cccc(F)c2)C1 [Example 112, 1-((3S,4R)-4-(3-fluoro-phenyl)-1-(2-methoxy-ethyl)pyrrolidin-3-yl)-3-(3-(4-fluorophenyl)-1-methyl-1H-pyrazol-5-yl)urea] |
| < 100 | COCCN1C[C@@H](NC(=O)Nc2cc(C(F)(F)F)nn2-c2ccccc2)[C@H](c2ccccc2)C1 [Example 53, 1-((3S,4R)-1-(2-methoxyethyl)-4-phenylpyrrolidin-3-yl)-3-(1-phenyl-3-(trifluoromethyl)-1H-pyrazol-5-yl)urea] |
| 100 to 1000 | COCCN1C[C@@H](NC(=O)Nc2c3c(nn2-c2ccccc2)CCC3)[C@](F)(c2ccccc2)C1 [Example 181, 1-((3R,4S)-4-fluoro-1-(2-methoxyethyl)-4-phenylpyrrolidin-3-yl)-3-(2-phenyl-2,4,5,6-tetrahydrocyclopenta[c]pyrazol-3-yl)urea] |
| < 100 | COCCN1C[C@@H](NC(=O)Nc2cc(-c3cccc(C#N)c3)nn2C)[C@H](c2ccc(F)c(F)c2)C1 [Example 59, 1-(3-(3-cyanophenyl)-1-methyl-1H-pyrazol-5-yl)-3-((3S,4R)-4-(3,4-difluorophenyl)-1-(2-methoxyethyl)pyrrolidin-3-yl)urea] |
| < 100 | COCCN1C[C@@H](NC(=O)Nc2cc(-c3ccc(CO)cc3)nn2C)[C@H](c2ccc(F)c(F)c2)C1 [Example 165, 1-((3S,4R)-4-(3,4-difluorophenyl)-1-(2-methoxyethyl)pyrrolidin-3-yl)-3-(3-(4-(hydroxymethyl)phenyl)-1-methyl-1H-pyrazol-5-yl)urea] |
| < 100 | COCCN1C[C@@H](NC(=O)Nc2cc(-c3ccccc3)nn2C)[C@H](c2cccc(F)c2)C1 [Example 110, 1-((3S,4R)-4-(3-fluoro-phenyl)-1-(2-methoxy-ethyl)pyrrolidin-3-yl)-3-(1-methyl-3-phenyl-1H-pyrazol-5-yl)urea] |
| < 100 | COCCN1C[C@@H](NC(=O)Nc2c(C)c(-c3ccc(=O)n(CC(F)(F)F)c3)nn2-c2ccccc2)[C@H](c2ccc(F)c(F)c2)C1 [Example 517, 1-((3S,4R)-4-(3,4-difluorophenyl)-1-(2-methoxyethyl)pyrrolidin-3-yl)-3-(4-methyl-3-(6-oxo-1-(2,2,2-trifluoroethyl)-1,6-dihydropyridin-3-yl)-1-phenyl-1H-pyrazol-5-yl)urea] |
| < 100 | CCOc1ncccc1N1C[C@@H](NC(=O)Nc2c(C)c(OCC)nn2-c2ccccc2)[C@H](c2ccccc2)C1 [Example 243, 1-(3-ethoxy-4-methyl-1-phenyl-1H-pyrazol-5-yl)-3-((3S,4R)-1-(2-ethoxypyridin-3-yl)-4-phenylpyrrolidin-3-yl)urea] |
